Source: patent US8202844B2, “Indole antiviral compositions and methods” (The Regents of the University of Michigan, priority 2003, dated 2012)
pIC50: −log10 of the molar value. Read-outs that look alike come from different tables or passages of the source.

Key:
uninfected host cells = conditions: cited from earlier work
[1] = system: human cytomegalovirus (HCMV); conditions: cited from earlier work; for activity against HCMV: literature reports
[2] = system: herpes simplex virus type 1 (HSV-1); experiment: HSV-1 ELISA; assay type: cell-based, HSV-1 KOS strain in BSC-1 cells
Method: (§1) Virological procedures. The Towne strain, plaque-purified isolate Po, of HCMV was kindly provided by Dr. Mark Stinski, University of Iowa. The KOS strain of HSV-1 was used in most experiments and was provided by Dr. Sandra K. Weller, University of Connecticut. Stock HCMV was prepared by infecting HFF cells at a multiplicity of infection (m.o.i.) of <0.01 plaque-forming units (p.f.u.) per cell as detailed previously (Turk, et al., Agents Chemother. 1987, 31, 544-550, herein incorporated by reference). High titer HSV-1 stocks were prepared by infecting KB cells at an m.o.i. of <0.1 also as detailed previously (see Turk et al.). Virus titers were determined using monolayer cultures of HFF cells for HCMV and monolayer cultures of BSC-1 cells for HSV-1 as described earlier (Prichard, et al., J. Virol. Methods 1990, 28, 101-106, herein incorporated by reference). Briefly, HFF or BSC-1 cells were planted as described above in 96-well cluster dishes and incubated overnight at 37° C. The next day cultures were inoculated with HCMV or HSV-1 and serially diluted 1:3 across the remaining eleven columns of the 96-well plate. After virus adsorption the inoculum was replaced with fresh medium and cultures were incubated for seven days for HCMV, two or three days for HSV-1. Plaques were enumerated under 20-fold magnification in wells having the dilution which gave 5 to 20 plaques per well. Virus titers were calculated according to the following formula: Titer (p.f.u./mL)=number of plaques×5×3^n; where n represents the n^th dilution of the virus used to infect the well in which plaques were enumerated.
HSV-1 ELISA. An ELISA was employed (Prichard, et al., Antiviral Res. 1990, 14, 181-206, herein incorporated by reference) to detect HSV-1. Ninety-six-well cluster dishes were planted with 10,000 BSC-1 cells per well in 200 μL per well of MEM(E) plus 10% calf serum. After overnight incubation at 37° C., selected drug concentrations in quadruplicate and HSV-1 at a concentration of 100 p.f.u./well were added. Following a 3-day incubation at 37° C., medium was removed, plates were blocked, rinsed, and horse radish peroxidase conjugated rabbit anti-HSV-1 antibody was added. Following removal of the antibody containing solution, plates were rinsed, and then developed by adding 150 μl per well of a solution of tetramethylbenzidine as substrate. The reaction was stopped with H2SO4 and absorbance was read at 450 and 570 nm. Drug effects were calculated as a percentage of the reduction in absorbance in the presence of each drug concentration compared to absorbance obtained with virus in the absence of drug.
(§2) Data Analysis. Dose response relationships were used to quantitate drug effects by linear regression of the percent inhibition of parameters derived in the preceding assays against log10 drug concentrations. Fifty percent inhibitory concentrations (IC50's) were calculated from the linear portions of the regression lines. Samples containing positive controls (acyclovir for HSV-1, GCV for HCMV, and 2-acetylpyridine thiosemicarbazone for cytotoxicity) were used in all assays.

[3] = Cytotoxicity in stationary HFF cells, microscopic inspection; assay type: cell-based; conditions: human, read-out: 50% Inhibitory Concentration, HFF Cytotoxicity
Method: (§3) Cytotoxicity assays. Two different assays were used for routine cytotoxicity testing. (i) Cytotoxicity produced in stationary HFF cells was determined by microscopic inspection of cells not affected by the virus used in plaque assays (Turk, et al., Agents Chemother. 1987, 31, 544-550, herein incorporated by reference). (ii) The effect of compounds during two population doublings of KB cells was determined by crystal violet staining and spectrophotometric quantitation of dye eluted from stained cells as described earlier (Prichard, et al., Antiviral Res. 1991, 35, 1060-1065, herein incorporated by reference). Briefly, 96-well cluster dishes were planted with KB cells at 3000-5000 cells per well. After overnight incubation at 37° C., test compound was added in quadruplicate at six to eight concentrations. Plates were incubated at 37° C. for 48 h in a CO2 incubator, rinsed, fixed with 95% ethanol, and stained with 0.1% crystal violet. Acidified ethanol was added and plates read at 570 nm in a spectrophotometer designed to read 96-well ELISA assay plates.
as §2

[4] = system: human cytomegalovirus (HCMV); experiment: Literature activity against HCMV replication in vitro; assay type: cell-based
[5] = system: human cytomegalovirus (HCMV); experiment: HCMV plaque reduction assay; assay type: cell-based, HCMV Towne strain in HFF cells; conditions: for pIC50: read-out: 50% Inhibitory Concentration, HCMV Activity
Method: as §1
HCMV plaque reduction assay. HFF cells in 24-well cluster dishes were infected with approximately 100 p.f.u. of HCMV per cm^2 cell sheet using the procedures detailed above. Following virus adsorption, the compounds, prepared as 10 mg/mL stock solutions in DMSO were diluted with growth medium and were added to duplicate wells in four to eight selected concentrations. After incubation at 37° C. for 7-10 days, cell sheets were fixed, stained with crystal violet and microscopic plaques enumerated as described above. Drug effects were calculated as a percentage of reduction in number of plaques in the presence of each drug concentration compared to the number observed in the absence of drug.
as §2

[6] = Cytotoxicity in growing KB cells, crystal violet staining; assay type: cell-based; conditions: human, read-out: 50% Inhibitory Concentration, KB Cytotoxicity
Method: as §3, §2

[7] = Good et al.; cited from earlier work
[8] = Human alphaherpesvirus 1, BSC-1, read-out: 50% Inhibitory Concentration, HSV-1 Activity
[9] = Human alphaherpesvirus 1, ELISA in BSC-1 cells, read-out: 50% Inhibitory Concentration, HSV-1 Activity
[10] = stationary human foreskin fibroblasts (HFF cells)
[11] = Human betaherpesvirus 5, plaque reduction in HFF cells

| Structure (SMILES) | activity against HCMV [1] | pIC50 [2, 8] | pIC50 [3] | pIC50 ([5]; Human betaherpesvirus 5, HFF) | IC50 at 48 h [6] | also measured |
| --- | --- | --- | --- | --- | --- | --- |
| OC[C@H]1O[C@@H](n2c(Cl)cc3cc(Cl)c(Cl)cc32)[C@H](O)[C@@H]1O [Compound 4.2, 2,5,6-trichloro-1-(β-D-ribofuranosyl)indole, reference compound] | inactive | – | – | – | – | cytotoxicity (uninfected host cells; Chen et al.): non-cytotoxic |
| O=Cc1c(Cl)n([C@@H]2O[C@H](CO)[C@@H](O)[C@H]2O)c2cc(Cl)c(Cl)cc12 [Compound 4.3, 2,5,6-trichloro-3-formyl-1-(β-D-ribofuranosyl)indole] | even more active than TCRB | 4.40 | 4.35 | 6.70 | 45 µM | CC50 (uninfected host cells; Chen thesis, read-out: CC50 against uninfected host cells): 45 µM; selectivity index (calculated by dividing the CC50 by the IC50) [4]: 195; pIC50 ([1]; Chen thesis, read-out: IC50 against HCMV): 6.64 |
| CN(C)c1c(C#N)c2cc(Cl)c(Cl)cc2n1[C@@H]1O[C@H](CO)[C@@H](O)[C@H]1O [Compound 4.14, 5,6-Dichloro-2-dimethylamino-3-cyano-1-(β-D-ribofuranosyl)indole] | – | – | – | – | 90 µM | pIC50 [2, 9]: < 4.00; pIC50 [3, 10]: 4.00; pIC50 [5, 11]: 4.77 |
| COC(=N)c1c(Cl)n([C@@H]2O[C@H](CO)[C@@H](O)[C@H]2O)c2cc(Cl)c(Cl)cc12 [Compound 4.34, Methyl 2,5,6-Trichloro-1-(β-D-ribofuranosyl)indole-3-formimidate] | – | – | – | – | 90 µM | pIC50 [2, 9]: 4.15; pIC50 [3, 10]: 4.00; pIC50 [5, 11]: 6.40 |
| CC(=O)OC[C@H]1O[C@@H](n2c(Cl)c(C(C)=O)c3cc(Cl)c(Cl)cc32)[C@H](O)[C@@H]1O [Compound 4.43, 2,5,6-Trichloro-3-acetyl-1-(5-O-acetyl-β-D-ribofuranosyl)indole] | – | – | – | – | – | antiviral activity ([5]; virus not specified, HCMV and HSV-1 were used): comparable to the fully deprotected analog |
| C[C@H]1O[C@@H](n2c(Cl)c(C=O)c3cc(Cl)c(Cl)cc32)[C@H](O)[C@@H]1O [Compound 4.97, 2,5,6-Trichloro-3-formyl-1-(5-deoxy-β-D-ribofuranosyl)indole] | – | 4.70 | 4.49 | 6.52 | 25 µM | – |
| CC(=O)OC[C@H]1O[C@@H](n2c(Br)c(C=O)c3cc(Cl)c(Cl)cc32)[C@H](O)[C@@H]1O [Compound 4.136, 5,6-Dichloro-2-bromo-3-formyl-1-(5-O-acetyl-β-D-ribofuranosyl)indole] | – | 4.82 | 4.49 | 6.52 | 40 µM | – |
| CC(C)Nc1nc2cc(Cl)c(Cl)cc2n1[C@H]1O[C@@H](CO)[C@H](O)[C@@H]1O [Compound 1263W94] | very active | – | – | – | – | – |
| OC[C@H]1O[C@@H](n2c(Cl)nc3cc(Cl)c(Cl)cc32)[C@H](O)[C@@H]1O [TCRB, 2,5,6-trichloro-1-(β-D-ribofuranosyl)benzimidazole] | potent and selective inhibitor | – | – | – | – | in vivo stability [7]: in vivo instability |
